Assay results from patent publication US7972800B2, “Screening method for binding property or signal transduction alterations” (Takeda Pharmaceutical Company Limited, priority 2003, dated 2011).

How the values were obtained:
Format in all cases: cell-based
[1] = test system: CHO cells where the receptor was not expressed or GPCR other than GPR39 was expressed; settings: FLIPR; control cells
mouse GPR39 = molecular target: T1, mouse GPR39 (Mus musculus, UniProt Q5U431, T447P); settings: FLIPR, Fluo-3AM (FIG. 14 through FIG. 18)
T1 construct: expressed in transfected cells; host or cells: CHO cells, vector pAKKO-111H
T1 sequence (Q5U431 1-456 T447P): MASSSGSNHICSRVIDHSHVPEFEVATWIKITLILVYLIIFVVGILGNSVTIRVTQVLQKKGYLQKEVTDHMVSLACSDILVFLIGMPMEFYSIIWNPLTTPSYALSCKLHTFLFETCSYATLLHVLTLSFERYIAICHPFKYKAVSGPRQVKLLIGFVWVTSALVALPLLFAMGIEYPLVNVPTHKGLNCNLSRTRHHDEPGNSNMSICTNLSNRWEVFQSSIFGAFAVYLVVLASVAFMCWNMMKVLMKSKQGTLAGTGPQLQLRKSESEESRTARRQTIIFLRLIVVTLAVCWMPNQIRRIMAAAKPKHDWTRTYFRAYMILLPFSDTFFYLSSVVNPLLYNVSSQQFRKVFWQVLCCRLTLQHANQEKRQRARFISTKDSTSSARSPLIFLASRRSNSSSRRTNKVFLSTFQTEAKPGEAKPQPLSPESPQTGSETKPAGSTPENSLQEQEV
Method: (§1) Using the CHO cell line where rat GPR39 was stably expressed, the agonist activity of metal ions was detected using FLIPR in terms of the intracellular calcium-increasing reaction as an indicator. The CHO cell line used, wherein rat GPR39 was stably expressed, was cultured in HAM's αMEM (Invitrogen Corp.) containing 10% calf fetal serum (Invitrogen Corp.). On the day before the assay was conducted, the human GPR39-expressing CHO cell line was cultured in a culture flask to reach a confluent state. After washing with PBS, the cells were scraped off using trypsin and centrifuged for recovery. The cells were then suspended in medium and the suspension was adjusted to 3×10^5 cells/ml. Then, the suspension was dispensed onto a black walled 96-well plate (Costar) in 100 μl each per well, followed by incubation overnight in a CO2 incubator.
(§2) On the day when the assay was conducted, various test samples were added to the cells and the changes of intracellular calcium levels in this case were determined by FLIPR (Molecular Device). In order to determine the changes in intracellular calcium levels on FLIPR, the cells were pre-treated by the following procedures. First, for the purpose of adding a fluorescent dye Fluo-3AM (DOJIN) to the cells or washing the cells immediately before the FLIPR assay, an assay buffer was prepared. A solution was prepared by adding 20 ml of 1M HEPES (pH 7.4) (DOJIN) to 1000 ml of HBSS (Invitrogen Corp.) (hereinafter HBSS/HEPES solution), to which solution was added 10 ml of a solution mixture obtained by dissolving 710 mg of Probenecid (Sigma) in 5 ml of 1N NaOH and further adding 5 ml of HBSS/HEPES solution thereto. The resulting solution was used as the assay buffer. Next, 50 μg of Fluo-3AM was dissolved in 21 μl of DMSO (DOJIN) and an equal volume of 20% Pluronic acid (Molecular Probes) was added to and mixed with the solution. The mixture was then added to 10.6 ml of the assay buffer supplemented with 105 μl of fetal calf serum to prepare a fluorescent dye solution. The medium for the CHO cells where human GPR39 was stably expressed was removed. Immediately thereafter, the fluorescent dye solution was dispensed in 100 μl each/well and the cells were incubated in a CO2 incubator for an hour so that the fluorescent dye was taken up into the cells. The cells after the incubation was washed with the assay buffer described above and set on FLIPR. A test sample to be added to the CHO cells where rat GPR39 was stably expressed was prepared using the assay buffer and set on FLIPR at the same time. Following the pre-treatment above, the changes in intracellular calcium levels after the addition of each test sample were determined by FLIPR.
Using the CHO cell line where mouse GPR39 was stably expressed, the agonist activity of metal ions was detected on FLIPR in accordance with the procedures described in EXAMPLE 5, in terms of the intracellular calcium-increasing reaction as an indicator.

rat GPR39 = settings: FLIPR, Fluo-3AM (FIG. 9 through FIG. 13)
Method: as §1, §2

Row | SMILES | intracellular calcium response in CHO cells without the receptor or with GPCR other than GPR39 [1] | intracellular calcium levels of CHO/mGPR39 (mouse GPR39) | intracellular calcium levels of CHO/rGPR39 (rat GPR39)
1 | [Cl][Cu][Cl] [copper chloride] | no such response was observed | dose-dependently increased | dose-dependently increased
2 | [Cl][Ni][Cl] [nickel chloride] | no such response was observed | dose-dependently increased | dose-dependently increased
